Laboratory results reported in paper PMC12470154, “In Vitro Evaluation of Antimicrobial Amyloidogenic Peptides for the Treatment of Early and Mature Bacterial Biofilms” (International Journal of Molecular Sciences, 2025).

How the values were obtained:
[1] = tested on: P. aeruginosa (2943 strain); assay: Antibacterial activity in liquid medium (optical density); format: cell-based, Pseudomonas aeruginosa; parameters: key to change of optical density vs negative control: ↓: Decrease in the parameter (optical density) compared to the negative control; −: No decrease in the parameter; ↑: Reverse effect (increase in the optical density compared to the control); conditions: 24 h, 37 °C; for change of optical density vs negative control: OD 595 nm
Protocol: (§1) To evaluate the antibacterial activity of peptides in liquid culture, a stationary-phase culture of the tested bacterial strain was diluted 100-fold in fresh medium containing peptides or gentamicin (positive control) at the specified concentrations. A total volume of 200 µL was added to each well of a 96-well round-bottom microtiter plate. After 24 h of incubation at 37 °C, the samples were transferred to a flat-bottom 96-well microtiter plate, and the optical density was measured at 595 nm. Separately, the optical density of medium containing peptides but no bacteria was measured. These values were used as baseline (zero) readings for subsequent data analysis.

MRSA (SA 180-F strain) [2] = assay: Early biofilm formation, MTT assay; format: cell-based, methicillin-resistant Staphylococcus aureus; parameters: key: ↓: Decrease in the parameter (optical density) compared to the negative control; −: No decrease in the parameter; ↑: Reverse effect (increase in the optical density compared to the control); conditions: 24 h, 0.3% MTT 2 h 37 °C, OD 595 nm
Protocol: (§2) After 24 h of incubation, the medium was removed. To assess the total biofilm biomass, the wells were rinsed with sterile PBS solution and stained with 0.1% crystal violet. The dye bound to the surface was then removed using 95% ethanol. To assess the presence of metabolically active cells, 0.3% MTT (PanEco Ltd., Moscow, Russia) solution was added to each well, and the plates were incubated at 37 °C for 2 h. After incubation, the MTT solution was removed, 150 µL of DMSO (Chimmed, Moscow, Russia) and 25 µL of glycine buffer were added to each well, and the plates were left at room temperature for 15 min. The resulting solutions were transferred to a flat-bottom 96-well plate, and optical density was measured at 595 nm.

E. coli (MG1655 strain) [3] = assay: Mature biofilms, crystal violet staining; format: cell-based, Escherichia coli; parameters: key: ↓: Decrease in the parameter (optical density) compared to the negative control; −: No decrease in the parameter; ↑: Reverse effect (increase in the optical density compared to the control); conditions: mature biofilm: peptide added after 24 h, further 24 h; 0.01-10 mg/mL
Protocol: as §2
(§3) A stationary-phase culture of the tested strain was diluted 100-fold in fresh medium (200 µL per well) and added to the wells of a 96-well round-bottom plate. […] After another 24 h, the medium was removed and the wells were rinsed with sterile PBS to eliminate planktonic cells. The procedures for assessing total biofilm biomass and cell metabolic activity using crystal violet and MTT assays were performed in the same manner as described above for early-stage biofilm experiments.

MRSA (SA 180-F strain) [4] = assay: Early biofilm formation, crystal violet staining; format: cell-based, methicillin-resistant Staphylococcus aureus; conditions: for concentration given with ↓ (crystal violet): 24 h; for biofilm biomass following treatment (crystal violet): Table 3; for effectiveness compared to meropenem: tested concentrations 0.01, 0.1, 1, 10 mg/mL, crystal violet
Protocol: as §2

S. aureus (129B strain) [5] = assay: Antibacterial activity in liquid medium (optical density); format: cell-based, Staphylococcus aureus; parameters: key to change of optical density vs negative control: ↓: Decrease in the parameter (optical density) compared to the negative control; −: No decrease in the parameter; ↑: Reverse effect (increase in the optical density compared to the control); conditions: 24 h, 37 °C; for change of optical density vs negative control: OD 595 nm
Protocol: as §1

S. aureus (129B strain) [6] = assay: Mature biofilms, crystal violet staining; format: cell-based, Staphylococcus aureus; parameters: key: ↓: Decrease in the parameter (optical density) compared to the negative control; −: No decrease in the parameter; ↑: Reverse effect (increase in the optical density compared to the control); conditions: mature biofilm: peptide added after 24 h, further 24 h; 0.01-10 mg/mL
Protocol: as §2, §3

[7] = tested on: P. aeruginosa (2943 strain); assay: Mature biofilms, MTT assay; format: cell-based, Pseudomonas aeruginosa; parameters: key: ↓: Decrease in the parameter (optical density) compared to the negative control; −: No decrease in the optical density; ↑: Reverse effect (increase in the optical density compared to the control); conditions: mature biofilm: peptide added after 24 h, further 24 h, 0.01-10 mg/mL
Protocol: as §2, §3

MRSA (SA 180-F strain) [8] = assay: Mature biofilms, MTT assay; format: cell-based, methicillin-resistant Staphylococcus aureus; conditions: mature biofilm
Protocol: as §2, §3

[9] = tested on: P. aeruginosa (2943 strain); assay: Antibacterial activity on 0.7% agar (inhibition zone); format: cell-based, Pseudomonas aeruginosa; parameters: key: +: The presence of a bacterial growth inhibition zone; −: The absence of a bacterial growth inhibition zone; conditions: drop on 0.7% agar, 24 h
Protocol: Drops of the samples were applied to the surface of solidified 0.7% agar at the concentrations indicated in Table 2 and Supplementary S2 (Figures S1–S4). After 24 h of incubation, the results were evaluated based on the presence or absence (+/−) of inhibition zones.
Once the agar solidified, drops of peptide samples at the concentrations 1, 0.1, 0.01, and 0.001 mg/mL were applied to the agar surface.

S. aureus (129B strain) [10] = assay: Mature biofilms, MTT assay; format: cell-based, Staphylococcus aureus; parameters: key: ↓: Decrease in the parameter (optical density) compared to the negative control; −: No decrease in the optical density; ↑: Reverse effect (increase in the optical density compared to the control); conditions: mature biofilm: peptide added after 24 h, further 24 h; 0.01-10 mg/mL
Protocol: as §2, §3

E. coli (MG1655 strain) [11] = assay: Antibacterial activity in liquid medium (optical density); format: cell-based, Escherichia coli; parameters: key to change of optical density vs negative control: ↓: Decrease in the parameter (optical density) compared to the negative control; −: No decrease in the parameter; ↑: Reverse effect (increase in the optical density compared to the control); conditions: 24 h, 37 °C; for change of optical density vs negative control: OD 595 nm
Protocol: as §1

MRSA (SA 180-F strain) [12] = assay: Mature biofilms, crystal violet staining; format: cell-based, methicillin-resistant Staphylococcus aureus; parameters: key: ↓: Decrease in the parameter (optical density) compared to the negative control; −: No decrease in the optical density; ↑: Reverse effect (increase in the optical density compared to the control); conditions: mature biofilm: peptide added after 24 h, further 24 h; 0.01-10 mg/mL
Protocol: as §2, §3

Sequence	concentration given with ↓ (decrease in optical density) [1] [mg/mL]	change of optical density vs negative control [1]	change of optical density after MTT assay vs negative control (MRSA (SA 180-F strain) [2])	change of optical density after crystal violet staining vs negative control (E. coli (MG1655 strain) [3])	concentration given with ↓ (crystal violet) (MRSA (SA 180-F strain) [4]) [mg/mL]	biofilm biomass following treatment (crystal violet) (MRSA (SA 180-F strain) [4])	effectiveness compared to meropenem (MRSA (SA 180-F strain) [4]; Figure 1)	concentration given with ↓ (decrease in optical density) (S. aureus (129B strain) [5]) [mg/mL]	change of optical density vs negative control (S. aureus (129B strain) [5])	change of optical density after crystal violet staining vs negative control (S. aureus (129B strain) [6])	concentration given with ↓ (MTT) (MRSA (SA 180-F strain) [8]) [mg/mL]	bacterial growth inhibition zone ([9]; 0.001 mg/mL)	bacterial growth inhibition zone ([9]; 0.01 mg/mL)	bacterial growth inhibition zone ([9]; 0.1 mg/mL)	bacterial growth inhibition zone ([9]; 1 mg/mL)	change of optical density after MTT assay vs negative control (S. aureus (129B strain) [10])	concentration given with ↓ (decrease in optical density) (E. coli (MG1655 strain) [11]) [mg/mL]	change of optical density vs negative control (E. coli (MG1655 strain) [11])	effect on MRSA biofilm formation (crystal violet staining intensity) (MRSA (SA 180-F strain) [4]; 0.01 mg/mL, Figure 1)	change of optical density after crystal violet staining vs negative control (MRSA (SA 180-F strain) [12])	also measured
RKKRRQRRRGGGGVVVHINGGKFGGGGSRQIKIWFQNRRMKWKK [R44K^S]	10	↓ (10 mg/mL)	↑	↑	1	marked reduction in biofilm biomass	less effective compared to meropenem	10	↓ (10 mg/mL)	↑	0.01	−	−	−	+	−	0.1	↓ (0.1 mg/mL)			effect on MRSA biofilm formation (crystal violet staining intensity) (MRSA (SA 180-F strain) [4]; 1 and 10 mg/mL, Figure 1, two independent replicates): inhibitory effect; concentration given with ↓ (crystal violet) (MRSA (SA 180-F strain) [4]; listed as R44K^P): 10 mg/mL; change of optical density vs negative control (S. aureus (129B strain) [5]; listed as R44K^P): ↑; change of optical density after MTT assay vs negative control ([7]; listed as R44K^P): −; bacterial growth inhibition zone ([9]; 1 mg/mL, listed as R44K^P): −
VTDFGVFVEIGGGGSRQIKIWFQNRRMKWKK [V31K^T, amyloidogenic fragment of S1 of T. thermophilus linked via glycine-rich linker to antennapedia peptide]	10	−	↑	↑	10	marked reduction in biofilm biomass	less effective compared to meropenem		−	↑	0.01	−	−	−	−	−	0.1	−	inhibitory effect	−	change of optical density vs negative control ([1]; listed as V31K^S): ↓ (10 mg/mL); effect on MRSA biofilm formation (crystal violet staining intensity) (MRSA (SA 180-F strain) [4]; 10 mg/mL, Figure 1): reversed; change of optical density vs negative control (S. aureus (129B strain) [5]; listed as V31K^S): ↑; change of optical density after MTT assay vs negative control ([7]; listed as V31K^S): −; change of optical density vs negative control (E. coli (MG1655 strain) [11]; listed as V31K^S): ↓ (0.1 mg/mL)
RKKRRQRRRGGGGVTDFGVFVEI [R23I^T, TAT cell-penetrating peptide linked via glycine linker to amyloidogenic fragment of S1 ribosomal protein of T. thermophilus]	10	↓ (10 mg/mL)	↑						↑			−	−	−	+	−		↑		−	change of optical density after MTT assay vs negative control [7]: −
RKKRRQRRRGGGGITDFGIFIGL [R23L^P]	10	↓ (10 mg/mL)	↑	↑	10	marked reduction in biofilm biomass	less effective compared to meropenem	1	↓ (1 mg/mL)	↑	0.01	−	−	−	+	−	0.1	↓ (0.1 mg/mL)	inhibitory effect	−	
ITDFGIFIGLGGGGSRQIKIWFQNRRMKWKK [I31K^P]		↑	↑					0.1	↓ (0.1 mg/mL)	↑	0.01							−			metabolic activity of cells within mature biofilms (MTT) (MRSA (SA 180-F strain) [8]; 0.01, 0.1, 1, and 10 mg/mL): decreased the metabolic activity
